The values that follow come from patent US12570655B2, “Cysteine covalent modifiers of AKT1 and uses thereof” (Terremoto Biosciences, Inc., priority 2023, dated 2026).

pIC50: −log10 of the molar value. Where two headings read alike, the source gives them in different places.

What all share (assay type): cell-based
For experiment [1], the target named is T1, AKT1 E17K (Homo sapiens, UniProt P31749, E17K).
T1 construct: expressed in transfected cells; host or cells: HEK293
The experiment in a line: Live cell AKT1 E17K target engagement by NanoBRET competitive probe displacement. To be noted: HEK293 cells transfected with kinase-NanoLuciferase fusion, 2 h at 37° C. In a few lines:
(§1)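 Steps: overnight transfection of HEK293 with kinase-NanoLuc plasmids; addition of compound dilutions and tracer (~EC50); 2 h incubation at 37 °C; substrate plus extracellular luciferase inhibitor; luminescence at 460 and 600 nm. IC50 values came from fitting the BRET ratio to a Hill equation.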

Experiment [2] addresses T2, AKT2 (Homo sapiens, UniProt P31751).
T2 construct: expressed in transfected cells; host or cells: HEK293
The experiment in a line: Live cell AKT2 target engagement by NanoBRET competitive probe displacement. The conditions noted are these: HEK293 cells transfected with kinase-NanoLuciferase fusion, 2 h at 37° C. In a few lines:
as §1
For orientation: In BRET a luciferase serves as donor, and the signal depends on an acceptor being close.

Experiment [3] deals with LAPC4 prostate cancer cells. The experiment in a line: Antiproliferative effects in LAPC4 cells (CellTiter Glo). To be noted: LAPC4 cells (AKT1 E17K allele), read-out: LAPC4 proliferation IC50. An outline of the steps: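 Growth inhibition is gauged by intracellular ATP content, measured with CellTiter Glo 72 h after compound addition to 1,000 seeded cells per well. IC50 derives from a Hill equation fit.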

Experiment [4] concerns the target T3, AKT1 WT (Homo sapiens, UniProt P31749).
T3 construct: expressed in transfected cells; host or cells: HEK293
The experiment in a line: Live cell AKT1 WT target engagement by NanoBRET competitive probe displacement. To be noted: HEK293 cells transfected with kinase-NanoLuciferase fusion, 2 h at 37° C. An outline of the steps:
as §1

T3 sequence (P31749 whole entry): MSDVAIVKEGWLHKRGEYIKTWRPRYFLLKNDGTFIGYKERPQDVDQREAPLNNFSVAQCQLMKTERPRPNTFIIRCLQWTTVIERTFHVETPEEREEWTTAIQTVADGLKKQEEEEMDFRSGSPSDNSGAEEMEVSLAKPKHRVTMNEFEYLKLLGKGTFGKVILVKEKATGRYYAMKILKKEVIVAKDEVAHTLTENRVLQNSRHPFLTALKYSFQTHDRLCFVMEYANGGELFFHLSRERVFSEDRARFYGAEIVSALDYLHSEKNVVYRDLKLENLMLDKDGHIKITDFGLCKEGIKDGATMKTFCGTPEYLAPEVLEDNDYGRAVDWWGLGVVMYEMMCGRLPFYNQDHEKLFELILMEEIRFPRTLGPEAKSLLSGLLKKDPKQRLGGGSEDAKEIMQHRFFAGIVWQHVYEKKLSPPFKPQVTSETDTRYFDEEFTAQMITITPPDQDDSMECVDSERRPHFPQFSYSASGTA
T2 sequence (P31751 whole entry): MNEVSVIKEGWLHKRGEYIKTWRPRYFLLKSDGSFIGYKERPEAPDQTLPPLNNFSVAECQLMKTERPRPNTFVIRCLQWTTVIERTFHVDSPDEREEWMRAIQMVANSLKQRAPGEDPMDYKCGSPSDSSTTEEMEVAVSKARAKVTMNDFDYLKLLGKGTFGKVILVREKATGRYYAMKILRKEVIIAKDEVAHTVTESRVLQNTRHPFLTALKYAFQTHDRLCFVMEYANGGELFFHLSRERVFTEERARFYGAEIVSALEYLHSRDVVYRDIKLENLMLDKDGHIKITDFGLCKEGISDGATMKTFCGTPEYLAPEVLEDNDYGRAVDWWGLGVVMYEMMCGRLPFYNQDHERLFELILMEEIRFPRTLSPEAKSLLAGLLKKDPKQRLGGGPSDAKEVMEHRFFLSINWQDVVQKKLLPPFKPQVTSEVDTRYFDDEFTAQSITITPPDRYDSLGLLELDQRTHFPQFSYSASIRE
T1 sequence (P31749 whole entry E17K): as the sequence (P31749 whole entry) above, with E17K counted along it

Regarding `C=CC(=O)N1CCC(N[C@@H]2c3ccc(-n4c(-c5cccnc5N)nc5ccc(-n6cccn6)nc54)cc3CC2F)C[C@H]1C` (single isomer, unassigned) [Example 145, 1-((2R,4*)-4-(((1R,2*)-5-(2-(2-aminopyridin-3-yl)-5-(1H-pyrazol-1-yl)-3H-imidazo[4,5-b]pyridin-3-yl)-2-fluoro-2,3-dihydro-1H-inden-1-yl)amino)-2-methylpiperidin-1-yl)prop-2-en-1-one], the pIC50 in experiment [1] is 6.73; in experiment [2], 5.99; in experiment [3] (72 h), 6.36; in experiment [4], 7.53.

For `C=CC(=O)N1CCC(N[C@H]2CC(F)c3cc(-n4c(-c5cccnc5N)nc5ccc(-n6cccn6)nc54)ccc32)CC1` (single isomer, unassigned) [Example 233, 1-(4-(((1S,3*)-5-(2-(2-aminopyridin-3-yl)-5-(1H-pyrazol-1-yl)-3H-imidazo[4,5-b]pyridin-3-yl)-3-fluoro-2,3-dihydro-1H-inden-1-yl)amino)piperidin-1-yl)prop-2-en-1-one], the pIC50 in experiment [1] is 7.84; in experiment [2] it was 7.55; in experiment [3] (72 h), 7.15; in experiment [4] it was 7.22.

On to `C=CC(=O)Nc1ccccc1C(=O)N[C@H]1CCc2cc(-n3c(-c4cccnc4N)nc4ccc(-n5cccn5)nc43)ccc21` [Example 1, (S)-2-acrylamido-N-(5-(2-(2-aminopyridin-3-yl)-5-(1H-pyrazol-1-yl)-3H-imidazo[4,5-b]pyridin-3-yl)-2,3-dihydro-1H-inden-1-yl)benzamide], for which the pIC50 in experiment [1] is 7.91; in experiment [2], 7.46; in experiment [3] (Homo sapiens, LAPC4, 72 h), 7.60; in experiment [4], 7.93.

Take `C=CC(=O)N1CCC(N[C@@H]2c3ccc(-n4c(-c5cccnc5N)nc5ccc(-n6cccn6)nc54)cc3CC2OC)CC1` (single isomer, unassigned) [Example 162, 1-(4-(((1R,2*)-5-(2-(2-aminopyridin-3-yl)-5-(1H-pyrazol-1-yl)-3H-imidazo[4,5-b]pyridin-3-yl)-2-methoxy-2,3-dihydro-1H-inden-1-yl)amino)piperidin-1-yl)prop-2-en-1-one]: the pIC50 is 6.19 in experiment [1]; 5.23 in experiment [2]; 5.80 in experiment [3] (Homo sapiens, LAPC4, 72 h); 6.99 in experiment [4].

Regarding `Nc1ncccc1-c1nc2ccc(-n3cccn3)nc2n1-c1ccc2c(c1)CC[C@@H]2NC(=O)c1ccccc1NC(=O)C1=CCCC1` [Example 37, (S)-N-(5-(2-(2-aminopyridin-3-yl)-5-(1H-pyrazol-1-yl)-3H-imidazo[4,5-b]pyridin-3-yl)-2,3-dihydro-1H-inden-1-yl)-2-(cyclopent-1-ene-1-carboxamido)benzamide], the pIC50 in experiment [1] was 6.61; in experiment [2] it was 6.13; in experiment [3] (Homo sapiens, LAPC4, 72 h), 6.24; in experiment [4], 7.03.

Consider `C=CC(=O)N1CCC(N[C@@H]2c3ccc(-n4c(-c5cccnc5N)nc5ccc(-n6cccn6)nc54)cc3CC2C)CC1` (single isomer, unassigned) [Example 181, 1-(4-{[(1S,2*)-5-[2-(2-aminopyridin-3-yl)-5-(pyrazol-1-yl)imidazo[4,5-b]pyridin-3-yl]-2-methyl-2,3-dihydro-1H-inden-1-yl]amino}piperidin-1-yl)prop-2-en-1-one], for which the pIC50 in experiment [1] was 7.23; in experiment [2], 6.29; in experiment [3] (72 h) it was 6.03; in experiment [4], 5.94.

In the case of `Nc1ncccc1-c1nc2ccc(-n3cccn3)nc2n1-c1ccc2c(c1)CC[C@@H]2NC1CCN(C(=O)[C@@H]2CO2)CC1` [Example 123, 3-{3-[(1S)-1-({1-[(2S)-oxirane-2-carbonyl]piperidin-4-yl}amino)-2,3-dihydro-1H-inden-5-yl]-5-(pyrazol-1-yl)imidazo[4,5-b]pyridin-2-yl}pyridin-2-amine], the pIC50 was 7.37 in experiment [1]; 6.41 in experiment [2]; 6.13 in experiment [3] (Homo sapiens, LAPC4, 72 h); 7.51 in experiment [4].
